In paper PMC9757636, “The effectiveness of newly synthesized quaternary ammonium salts differing in chain length and type of counterion against priority human pathogens” (Scientific Reports, 2022):
Marks after values point to notes of the source that are not given here.

Columns and labels:
[1] = test system: S. epidermidis ATCC 35984; test: MIC/MBC microdilution; format: cell-based, Staphylococcus epidermidis; conditions: for Minimal bactericidal concentration (*MBC): 99.9% reduction; for Minimal inhibitory concentration (MIC): 24 h, 37 °C, >90% growth inhibition
Procedure: (§1) The minimum inhibitory concentration (MIC) of the tested monomeric QAS was performed using the microdilution method according to CLSI recommendation (M27-A3). Concentrations from 10 to 1280 µM were analyzed. Strains were incubated with or without compounds (growth control) for 24 h at 37 °C. Three independent replicates were performed. The MIC value was determined spectrophotometrically and the concentration that inhibited more than 90% of growth was determined. Optical density was measured at λ = 590 nm using a 96-well microplate reader (Bio-Rad Universal Hood II).
(§2) To determine the minimum bactericidal concentration (MBC), 10 µL of bacterial suspension incubated with monomeric QAS (MIC concentration and two times higher) was transferred to plates with LB (1% tryptone, 1% yeast extract, 0.5% NaCl) medium. […] The concentration that reduced 99.9% of microbial growth was determined as MBC[54].

[2] = test system: S. epidermidis B374; test: MIC/MBC microdilution; format: cell-based, Staphylococcus epidermidis; conditions: S. epidermidis B374; for Minimal bactericidal concentration (*MBC) / MBC: 99.9% reduction; for Minimal inhibitory concentration (MIC) / MIC: 24 h, 37 °C, >90% growth inhibition; for MBC: read-out: Minimal bactericidal concentration (*MBC); for MIC: read-out: Minimal inhibitory concentration (MIC)
Procedure: as §1, §2

[3] = test system: S. epidermidis SI8; test: MIC/MBC microdilution; format: cell-based, Staphylococcus epidermidis; conditions: for Minimal bactericidal concentration (*MBC): 99.9% reduction; for Minimal inhibitory concentration (MIC): 24 h, 37 °C, >90% growth inhibition
Procedure: as §1, §2

[4] = test system: S. aureus ATCC 6538; test: MIC/MBC microdilution; format: cell-based, Staphylococcus aureus; conditions: S. aureus ATCC 6538; for Minimal bactericidal concentration (*MBC): 99.9% reduction; for Minimal inhibitory concentration (MIC): 24 h, 37 °C, >90% growth inhibition
Procedure: as §1, §2

[5] = test system: S. aureus MRSA R98; test: MIC/MBC microdilution; format: cell-based, Staphylococcus aureus; conditions: for Minimal bactericidal concentration (*MBC): 99.9% reduction; for Minimal inhibitory concentration (MIC): 24 h, 37 °C, >90% growth inhibition
Procedure: as §1, §2

[6] = test system: E. coli ATCC 11229; test: MIC/MBC microdilution; format: cell-based, Escherichia coli; conditions: E. coli ATCC 11229; for Minimal bactericidal concentration (*MBC): 99.9% reduction; for Minimal inhibitory concentration (MIC): 24 h, 37 °C, >90% growth inhibition
Procedure: as §1, §2

[7] = test system: E. coli H64; test: MIC/MBC microdilution; format: cell-based, Escherichia coli; conditions: E. coli H64; for Minimal bactericidal concentration (*MBC): 99.9% reduction; for Minimal inhibitory concentration (MIC) / MIC: 24 h, 37 °C, >90% growth inhibition; for MIC: read-out: Minimal inhibitory concentration (MIC)
Procedure: as §1, §2

[8] = test system: P. aeruginosa ATCC 27853; test: MIC/MBC microdilution; format: cell-based, Pseudomonas aeruginosa; conditions: P. aeruginosa ATCC 27853; for Minimal bactericidal concentration (*MBC): 99.9% reduction; for Minimal inhibitory concentration (MIC): 24 h, 37 °C, >90% growth inhibition
Procedure: as §1, §2

[9] = test system: P. aeruginosa PAO1; test: MIC/MBC microdilution; format: cell-based, Pseudomonas aeruginosa; conditions: for Minimal bactericidal concentration (*MBC): 99.9% reduction; for Minimal inhibitory concentration (MIC): 24 h, 37 °C, >90% growth inhibition
Procedure: as §1, §2

[10] = Critical micelle concentration by conductometric measurements; format: physicochemical; conditions: aqueous solution, 25 °C
Procedure: Values of critical micelle concentrations (CMC) of cationic surfactants were measured conductrometrically. N5721 conductometer (Tel-Eko Projekt sp z o.o., Poland), equipped with N5981 probe, was calibrated using 0.1 M, 0.01 M and 0.001 M KCl aqueous solutions (conductivities equal to 1.287 S/m, 0.141 S/m and 0.0147 S/m, respectively) and used without temperature compensation mode (constant temperature 25 °C was kept during all calibration procedures and measurements). Values of specific conductivities of at least 15 different concentrations for each surfactant were measured and plotted versus concentration; the discontinuity point was used to determine critical micelle concentration.

[11] = test system: P. aeruginosa PAO1; test: Adhesion to glass; format: cell-based, Pseudomonas aeruginosa; conditions: concentration not given
[12] = test system: Salmonella typhimurium TA100; test: Mutagenicity (Ames test); format: cell-based; conditions: for Number of colonies: ± SD
Procedure: (§3) Two reference strains of Salmonella Typhimurium TA98 and Salmonella Typhimurium TA100, deficient in histidine synthesis, were used for this study according to the method proposed by Ames et al. with modifications. […] The mixture was mixed and poured onto a Davis minimal medium plate. The mixture without the test compound was used as a negative control. The positive control was a mixture of bacterial culture, biotin-histidine solution, and sodium azide (at a concentration of 15 μg/mL for strain TA100) or acriflavine (at a concentration of 100 μg/mL for strain TA98). Plates were incubated for 48 h at 37 °C, and then colonies were counted. The mutagenicity ratio (MR), the ratio of the number of revertants grown in the presence of the test compound to the number of spontaneously occurring revertants (negative control), was calculated. A mutagenic ratio equal to or greater than 1.7 indicates the mutagenic potential of the tested compounds. The study was performed in three times.

[13] = test system: Salmonella typhimurium TA98; test: Mutagenicity (Ames test); format: cell-based; conditions: for Number of colonies: ± SD
Procedure: as §3

[14] = test system: S. epidermidis B374; test: Adhesion to polystyrene plate; format: cell-based, Staphylococcus epidermidis
Procedure: Adhesion analysis to polystyrene surfaces was determined according to the method of Rodrigues et al. with modifications. Polystyrene 96-well plates were incubated with the respective compound concentrations (10–1280 µM) for 4 h at 37 °C with 100 rpm shaking. The plates were then washed with miliQ and inoculated with 100 µL of bacterial suspension (OD = 0.4–0.6). Plates were incubated for 6 h at 37 °C with 100 rpm shaking. Wells were rinsed and fixed for 20 min at 60 °C. They were then […] with 0.1% crystal violet solution for 5 min. The wells were washed with miliQ until the unfixed dye was completely eluted. The absorbance at λ = 590 nm was measured using a reader (Bio-Rad Universal Hood II). The positive control was a surface not treated with QAS. Three independent trials were performed.

[15] = test system: S. epidermidis B374; test: Adhesion to stainless steel; format: cell-based, Staphylococcus epidermidis; conditions: concentration not given, range given over three strains

Structure (SMILES)	Minimal bactericidal concentration (*MBC) [1]	Minimal inhibitory concentration (MIC) [1]	Minimal bactericidal concentration (*MBC) [3]	Minimal inhibitory concentration (MIC) [3]	Minimal bactericidal concentration (*MBC) [4]	Minimal inhibitory concentration (MIC) [4]	Minimal bactericidal concentration (*MBC) [5]	Minimal inhibitory concentration (MIC) [5]	Minimal bactericidal concentration (*MBC) [6]	Minimal inhibitory concentration (MIC) [6]	Minimal bactericidal concentration (*MBC) [7]	Minimal inhibitory concentration (MIC) [7]	Minimal bactericidal concentration (*MBC) [8]	Minimal inhibitory concentration (MIC) [8]	Minimal bactericidal concentration (*MBC) [9]	Minimal inhibitory concentration (MIC) [9]	CMC [10] [mol/L]	Mutagenicity index ([12]; ¼ MIC)	Number of colonies ([12]; ¼ MIC)	Mutagenicity index ([12]; ½ MIC)	also measured
CCCCCCCCCCCC(=O)N(C)CCC[N+](C)(C)C.[Br-] [BrC12]	640 *640 µM	640 *640 µM	640 *640 µM	640 *640 µM	1280 *1280 µM	1280 *1280 µM	640 *640 µM	640 *640 µM	1280 *1280 µM	1280 *1280 µM	1280 *1280 µM	1280 *1280 µM	1280 *1280 µM	1280 *1280 µM	> 1280 * > 1280 µM	> 1280 * > 1280 µM	0.0086	1.41	179.3 ± 13.9	1.15	Minimal bactericidal concentration (*MBC) [2]: 640 *640 µM; Minimal inhibitory concentration (MIC) [2]: 640 *640 µM; reduction of adhesion to glass [11]: approximately 20%; mutagenicity index (MR) ([12]; base pair substitution type mutations, MR >= 1.7 indicates mutagenic potential): < 1.7; Number of colonies ([12]; ½ MIC): 146 ± 18.5; mutagenicity index (MR) ([13]; reading frame shift type mutation, MR >= 1.7 indicates mutagenic potential): above 1.7; Mutagenicity index ([13]; ¼ MIC): 0.78; Number of colonies ([13]; ¼ MIC): 20 ± 1.4; Mutagenicity index ([13]; ½ MIC): 1.98; Number of colonies ([13]; ½ MIC): 50.5 ± 6.4
CCCCCCCCCCCCCC(=O)N(C)CCC[N+](C)(C)C.[Br-] [BrC14]	160 *160 µM	160 *160 µM	160 *160 µM	160 *160 µM	320 *320 µM	320 *320 µM	320 *320 µM	320 *320 µM	> 1280 * > 1280 µM	> 1280 * > 1280 µM	320 *320 µM	320 *320 µM	1280 *1280 µM	1280 *1280 µM	> 1280 * > 1280 µM	> 1280 * > 1280 µM	0.0025	1.24	158 ± 19.8	1.16	Minimal bactericidal concentration (*MBC) [2]: 640 * > 640 µM; Minimal inhibitory concentration (MIC) [2]: 640 * > 640 µM; reduced adhesion to polystyrene ([14]; 1280 µM): 82%; reduction of adhesion to glass [11]: approximately 20%; Number of colonies ([12]; ½ MIC): 147.5 ± 21.9; Mutagenicity index ([13]; ¼ MIC): 0.73; Number of colonies ([13]; ¼ MIC): 18.7 ± 6.4; Mutagenicity index ([13]; ½ MIC): 0.84
CCCCCCCCCCCCCCN(C)CCC[N+](C)(C)C.COC(=O)[O-] [MeC14, [(3-tetradecyilomethyloamine)propyl] trimethylammonium methylcarbonate]	40 *40 µM	40 *40 µM	40 *40 µM	40 *40 µM	80 *80 µM	80 *80 µM	80 *80 µM	80 *80 µM	320 *320 µM	320 *320 µM	80 *80 µM	80 *80 µM	1280 * > 1280 µM	1280 * > 1280 µM	> 1280 * > 1280 µM	> 1280 * > 1280 µM	0.0041	1.17	329.5 ± 20.5	1.10	MBC [2]: 160 µM; MIC [2]: 80 µM; MIC [7]: 80 µM; Number of colonies ([12]; ½ MIC): 310 ± 17.3; Mutagenicity index ([13]; ¼ MIC): 0.57; Number of colonies ([13]; ¼ MIC): 13 ± 2.8; Mutagenicity index ([13]; ½ MIC): 0.95; Number of colonies ([13]; ½ MIC): 21.7 ± 3.5
CCCCCCCCCCCCCCCCN(C)CCC[N+](C)(C)C.COC(=O)[O-] [MeC16, [(3-hexadecyilomethyloamine)propyl] trimethylammonium methylcarbonate]	40 *40 µM	40 *40 µM	10 *10 µM	10 *10 µM	10 *10 µM	10 *10 µM	40 *40 µM	40 *40 µM	320 *320 µM	320 *320 µM	80 *80 µM	80 *80 µM	> 1280 * > 1280 µM	> 1280 * > 1280 µM	> 1280 * > 1280 µM	> 1280 * > 1280 µM	0.0012	1.09	305 ± 8.7	1.09	MBC [2]: 160 µM; MIC [2]: 80 µM; MIC [7]: 80 µM; inhibition of adhesion to stainless steel [15]: 69–83%; reduction in adhesion to polystyrene ([14]; 320 µM): 77%; reduction of adhesion to glass [11]: approximately 20%; Number of colonies ([12]; ½ MIC): 306.7 ± 11.5; Mutagenicity index ([13]; ¼ MIC): 0.39; Number of colonies ([13]; ¼ MIC): 9 ± 2; Mutagenicity index ([13]; ½ MIC): 0.19; Number of colonies ([13]; ½ MIC): 4.3 ± 3.1
